{
  "source": "patent EP4737452A1",
  "about": "“NOVEL PYRIMIDINE DERIVATIVES” (Aigen Sciences Inc., priority 2023, dated 2025)",
  "key": {"[1]": {"system": "MCF-10A cell line", "experiment": "BRCA1 synthetic lethality assay, colony formation with crystal violet staining, BRCA1/2 wild-type cells", "assay_type": "cell-based", "description": "(§1) In this experimental example, whether the compound according to the present invention had synthetic lethal efficacy with BRCA1 activity was tested by examining the colony formation of tumor cells. MDA-MB-436 cells (ATCC, #HTB-130), a triple-negative breast cancer cell line with reduced BRCA1 activity due to BRCA1 mutation, and MCF-10A cell line (ATCC, #CRL-10317), which has wild-type BRCA1/2 genes and is used as a model of normal breast cells, were cultured in their respective culture media (MDA-MB-436: L-15 +10 […] + 10% fetal bovine serum (FBS), MCF-10A: MEGM + 100 ng/mL cholera toxin), and then seeded in 6-well plates at a concentration of 10,000 cells per well for the MDA-MB-436 cells and 120 cells per well for the MCF-10A cell line. […] The crystal violet stained in the cells was extracted by treating the cells with 500 µL of 10% acetic acid for 20 minutes at room temperature for quantitative analysis. 150 µL of the extracted crystal violet was placed in two wells of a 96-well plate, and the absorbance was measured at 565 nm. The absorbance was quantified relative to the absorbance value of a blank sample containing only DMSO but not the compound of the present invention."}, "[2]": {"system": "MDA-MB-436 cells", "experiment": "BRCA1 synthetic lethality assay, colony formation with crystal violet staining, BRCA1 mutant cells", "assay_type": "cell-based", "settings": "cultured for 21 days", "description": "as §1"}, "[3]": {"system": "MDA-MB-436", "experiment": "Cell survival analysis (CellTiter-Glo, 10 days culture)", "assay_type": "cell-based", "settings": "Homo sapiens, 240 h; MDA-MB-436 cell line, cultured for 10 days, CellTiter-Glo; read-out: Cell growth IC50 grade", "description": "In this experimental example, the cell growth inhibitory effect of compounds according to the present invention and positive control compounds in tumor cell lines was examined.\nMDA-MB-436 (ATCC, #HTB-130) cell line was cultured in cell culture medium (Leibovitz's L-15 (GIBCO catalog no. 11415064) + 10 µg/mL insulin (Yeasen catalog no. 40112ES25) + 16 µg/mL glutathione (GIBCO catalog no. 25030-081) + 10% fetal bovine serum (FBS) (Excell Bio catalog no. FSP500)). 3,000 MDA-MB-436 cells were plated per well in a 96-well plate and cultured for 1 day at 37°C in 5% CO2. […] The cells were then cultured in a cell incubator for 10 days, and the cell culture medium containing the compound was replaced on the 5th day of culture. Cell survival rate was analyzed for luminescence using the Promega CellTiter-Glo Luminescent Cell Viability Assay Kit (Promega catalog number G7573), and the luminescence was measured using a PerkinElmer EnVision instrument. The percentage of cell growth inhibition rate was calculated from the measured relative luminescence unit (RLU) as follows. Inhibition rate = 1−((RLU compound−RLU blank)/(RLU control−RLU blank)) × 100 [formula]"}, "[4]": {"molecular_target": "USP1 enzyme (Homo sapiens, UniProt O94782)", "sequence (O94782 whole entry)": "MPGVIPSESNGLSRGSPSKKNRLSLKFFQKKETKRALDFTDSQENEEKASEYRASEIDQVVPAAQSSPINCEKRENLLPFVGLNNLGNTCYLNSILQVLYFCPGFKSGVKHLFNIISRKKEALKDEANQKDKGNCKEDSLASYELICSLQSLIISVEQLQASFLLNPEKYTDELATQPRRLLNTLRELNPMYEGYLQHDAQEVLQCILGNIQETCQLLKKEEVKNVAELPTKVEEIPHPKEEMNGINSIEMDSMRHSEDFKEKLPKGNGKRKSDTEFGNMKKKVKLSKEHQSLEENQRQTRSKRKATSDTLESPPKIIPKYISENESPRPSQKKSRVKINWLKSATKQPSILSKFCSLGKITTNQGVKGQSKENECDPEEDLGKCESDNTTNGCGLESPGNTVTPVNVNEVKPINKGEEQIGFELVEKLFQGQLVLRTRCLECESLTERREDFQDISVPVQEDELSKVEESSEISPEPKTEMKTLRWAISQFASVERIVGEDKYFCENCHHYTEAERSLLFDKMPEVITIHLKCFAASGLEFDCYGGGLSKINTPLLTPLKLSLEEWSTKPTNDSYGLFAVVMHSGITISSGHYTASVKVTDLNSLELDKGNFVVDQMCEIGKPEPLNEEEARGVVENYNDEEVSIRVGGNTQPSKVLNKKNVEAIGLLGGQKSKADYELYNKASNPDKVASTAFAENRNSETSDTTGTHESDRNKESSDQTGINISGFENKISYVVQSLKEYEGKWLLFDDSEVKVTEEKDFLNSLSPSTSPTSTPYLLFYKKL", "sequence (Q8TAF3 whole entry partner)": "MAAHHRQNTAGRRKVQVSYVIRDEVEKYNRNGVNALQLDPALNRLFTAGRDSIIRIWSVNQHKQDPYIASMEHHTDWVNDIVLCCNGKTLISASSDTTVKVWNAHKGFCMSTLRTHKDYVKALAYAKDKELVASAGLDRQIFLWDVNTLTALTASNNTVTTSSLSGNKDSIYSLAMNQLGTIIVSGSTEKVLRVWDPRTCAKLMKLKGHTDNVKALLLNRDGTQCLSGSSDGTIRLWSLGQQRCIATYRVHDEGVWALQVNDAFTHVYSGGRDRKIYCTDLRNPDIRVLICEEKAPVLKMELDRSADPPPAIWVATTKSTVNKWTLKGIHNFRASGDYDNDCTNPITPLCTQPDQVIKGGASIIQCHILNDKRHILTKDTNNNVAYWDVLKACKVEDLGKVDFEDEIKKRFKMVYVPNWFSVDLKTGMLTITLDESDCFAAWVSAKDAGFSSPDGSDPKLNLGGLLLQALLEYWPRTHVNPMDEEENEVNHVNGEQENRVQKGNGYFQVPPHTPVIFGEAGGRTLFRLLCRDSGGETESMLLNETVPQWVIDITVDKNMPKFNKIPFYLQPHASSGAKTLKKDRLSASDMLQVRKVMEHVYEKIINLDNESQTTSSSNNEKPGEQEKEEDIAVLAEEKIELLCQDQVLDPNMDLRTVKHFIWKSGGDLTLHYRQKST", "experiment": "Biochemical analysis of USP1 enzyme activity (ubiquitin-rhodamine 110 deubiquitination, fluorescence)", "settings": "ubiquitin-rhodamine 110 substrate, 10 minutes pre-incubation, 30 minutes reaction at room temperature; read-out: Enzyme activity IC50 grade", "description": "In this experimental example, the inhibitory effect of the compounds according to the present invention and the positive control compound on USP1 deubiquitinating activity was tested using a biochemical enzymatic assay. Ubiquitin-rhodamine 110 was used as a substrate for measuring deubiquitinating activity. This substrate compound is a substance in which rhodamine 110 is linked to the glycine residue at the C-terminus of ubiquitin by an amide bond. When this amide bond is cleaved by the deubiquitinating activity, a fluorescent signal is counted.\nSubsequently, analytical buffer solution (50 mM hydroxyethylpiperazineethanesulfonic acid (HEPES) containing USP1 enzyme, 100 mM NaCl, 2 mM tris(2-carboxyethyl)phosphine (TCEP), and 100 µg/mL bovine serum albumin (BSA)) were added to each well of the plate and incubated at room temperature for 10 minutes. Subsequently, analytical y buffer solution containing ubiquitin-rhodamine 110 was added to each well and reacted at room temperature for 30 minutes."}},
  "data": [
    {"smiles": "COc1cccc(C2CC2)c1-c1ncc(P(C)(C)=O)c(NCc2ccc(-c3nc(C(F)(F)F)cn3C)cc2)n1", "note": "[Example 1, (2-(2-cyclopropyl-6-methoxyphenyl)-4-((4-(1-methyl-4-(trifluoromethyl)-1H-imidazol-2-yl)benzyl)amino)pyrimidin-5-yl)dimethylphosphine oxide]", "values": [
      {"measurement": "crystal violet extraction amount", "setting": "[1]; MCF-10A cells with wild-type BRCA1/2, cultured for 21 days, absorbance at 565 nm relative to DMSO blank, Fig. 1 A", "value": "no different from that of the DMSO blank"},
      {"measurement": "colony formation", "setting": "[1]; MCF-10A cells, cultured for 21 days, compared with DMSO blank sample, Fig. 1 B", "value": "formed colonies at a normal level"},
      {"measurement": "crystal violet extraction amount", "setting": "[2]; MDA-MB-436 cells with reduced BRCA1 activity, absorbance at 565 nm relative to DMSO blank, Fig. 1 A", "value": "less than one-fifth of that of the DMSO blank"},
      {"measurement": "colony formation", "setting": "[2]; MDA-MB-436 cells, compared with DMSO blank sample, Fig. 1 B", "value": "significantly reduced"},
      {"measurement": "IC50", "setting": "[3]", "value": "100 to 500", "unit": "nM"},
      {"measurement": "IC50", "setting": "[4]", "value": "50 to 100", "unit": "nM"}
    ]}
  ]
}
